# Source: patent US20210347823A1, “METHODS OF PHYSICOCHEMICAL-GUIDED PEPTIDE DESIGN AND NOVEL PEPTIDES DERIVED THEREFROM” (Massachusetts Institute of Technology, priority 2018, published 2021)
# “Also recorded” adds a separate entry of the source.
# Test system: P. aeruginosa strain PA14
# Test: Scarification skin infection mouse model
# Assay type: in vivo, female CD-1 mice
# Experimental: FIGS. 8A-8D. In vivo activity of Pol-CP—NH2 and its analogs. FIG. 8A. Schematic of the experimental design. Briefly, the back of mice was shaved and an abrasion was generated to damage the stratum corneum and the upper layer of the epidermis. Subsequently, an aliquot of 50 μL containing 5×10^7 CFU of P. aeruginosa in PBS was inoculated over each defined area. One day after the infection, peptides (4 μmol L^−1) were administered to the infected area. Animals were euthanized and the area of scarified skin was excised two and four days post-infection (FIG. 8B) homogenized using a bead beater for 20 minutes (25 Hz), and serially diluted for CFU quantification (****p<0.0001). FIG. 8C. Mouse body weight measurements throughout the experiment normalized by the body weight of non-infected mice. […] FIG. 8D. Longer experiment (four days) using a higher concentration (64 μmol L^−1) of peptides Pol-CP—NH2 and [Lys]'-Pol-CP—NH2 (****p<0.0001).
# Scarification Skin Infection Mouse Model. P. aeruginosa strain PA14 was grown to an optical density at 600 nm (OD600) of 1 in tryptic soy broth (TSB) medium. […] Animals were euthanized and the area of scarified skin was excised two and four days post-infection, homogenized using a bead beater for 20 minutes (25 Hz), and serially diluted for CFU quantification. […] Statistical significance was assessed using a one-way ANOVA.
substance,measurement,setting,value
"H-ILGTILKLLKSL-NH2 [Peptide 16, ILGTILKLLKSL-NH2]",in vivo anti-infective activity (CFU),"64 μmol L^−1, four days, listed as [Lys]^7-Pol-CP—NH2",nearly sterilized the infection; also recorded: virtually sterilizing abscess infections
same,"in vivo antimicrobial activity (bacterial load, CFU)",single dose of 4 μmol L^−1 one day after infection,most active
